Results reported in patent US20250084453A1, “SYSTEMS, COMPOSITIONS AND METHODS FOR IDENTIFYING E3 LIGASE SUBSTRATES BY UBIQUITIN BIOTINYLATION” (The Broad Institute, Inc., priority 2022, published 2025).

Test system: CRBN E3 ligase
Assay: Mass spectrometry of streptavidin pulldown of biotinylated ubiquitinated proteins, CRBN-BirA 293T cells with Avi-Ub or A3-Ub
Format: cell-based, human
Procedure: The cells were either treated or untreated with carfilzomib (0.4 μM) for 1 hour and were either treated or untreated with the CRBN-IMiD modifying agent CC-885 (1 μM) for another hour. […] As discussed above in Example 1, the GSPT1 substrate of BirA-tagged CRBN is expressed endogenously in 293T cells.
For such MS analyses, 50 μl of resuspended streptavidin beads were incubated with 1 ml of cell lysates (3 mg/ml) at 4° C. overnight. On the next day, the beads were pelleted (400×g, 1 minute), washed two times with 2% SDS (2% SDS, 25 mM Tris-HCl pH 7.5), and then washed three times with 6M urea (6M urea, 50 mM Tris-HCl pH 8). Each wash was performed by rotating the samples at room temperature for at least five minutes. Following the washes, the beads were resuspended in 90 μl of 2M urea, to which 10 μl of 0.1M TCEP (tris(2-carboxyethyl)phosphine, reducing agent) was added for a final concentration of 10 mM TCEP. The samples were agitated at 37° C. for 30 minutes to allow for protein reduction. Next, 10 μl of 0.165 M IAA, (iodoacetamide, alkylating agent) was added to a final concentration of 15 mM IAA. The samples were agitated in the dark at room temperature for 45 minutes. Thereafter, 1 μg of trypsin/LysC (Promega, Trypsin/Lys-C Mix, Mass Spec Grade, V5071) was added to each sample, and the samples were agitated for 3-4 hours at 37° C. Subsequently, 0.5 μg of trypsin/LysC (Promega, Trypsin/Lys-C Mix, Mass Spec Grade, V5071) was added to each sample, and the samples were agitated overnight at 37° C. On the next day, the supernatant containing the digested peptides was collected. The beads were washed two times with HPLC-grade water and were combined with the previously collected supernatant. Samples were centrifuged at 21,000×g for 10 minutes, and the clarified supernatant at the top was saved. Samples were acidified by the addition of 50% formic acid to a final concentration of 2%. Samples were vacuum dried (Speedvac) overnight and kept at −80° C. until ready for analysis by MS. […]
The preparation of cellular lysate was as described above for Cell Lysis, except that the RIPA buffer was supplemented with COMPLETE™ EDTA-free protease inhibitor cocktail (Roche; 04693159001; 1 tablet per 10 ml of buffer), benzonase (Millipore; E1014; 1 μl per 10 ml of buffer), 1.5 mM MgCl2, 1 mM EGTA, and 10 mM NEM (N-ethylmaleimide). For each sample, 1 ml of 3 mg/ml lysate was rotated overnight at 4° C. with 50 μl of resuspended streptavidin Sepharose beads (CYTIVA™; 17511301), which were pre-washed with RIPA lysis buffer 3 times. For all steps that required pelleting of beads, centrifugation was performed at 400×g for 1 minute. On the next day, streptavidin beads were pelleted, and the supernatant (a.k.a. flow-through) was either saved for analysis by Western blotting or was discarded.

[1] = Table 3 (head Avi-, text A3-Ub), DMSO 0
[2] = Table 3 (head Avi-, text A3-Ub), DMSO 3
[3] = Table 3 (head Avi-, text A3-Ub), DMSO 5
[4] = Table 3 (head Avi-, text A3-Ub), DMSO 6
[5] = Table 3 (head Avi-, text A3-Ub), DMSO 7
[6] = Table 3 (head Avi-, text A3-Ub), DMSO 9
[7] = Table 3 (head Avi-, text A3-Ub), DMSO 15

Cc1ccc(NC(=O)NCc2ccc3c(c2)CN(C2CCC(=O)NC2=O)C3=O)cc1Cl (stereo not drawn) [CC-885]
Most upregulated proteins in streptavidin pulldown versus DMSO (A3-Ub, triplicates, log2 FC and p-value (limma), FIG. 9): GSPT1 and GSPT2
# of PSMs, GSPT1 (Table 2, Avi-Ub, DMSO 0): 25
# of PSMs, GSPT2 (Table 2, Avi-Ub, DMSO 0): 13
# of PSMs, POLR2A (Table 2, Avi-Ub, DMSO 9): 11
# of PSMs, PSMD4 (Table 2, Avi-Ub, DMSO 10): 11
# of PSMs, VCL (Table 2, Avi-Ub, DMSO 10): 56
# of PSMs, SMC1A (Table 2, Avi-Ub, DMSO 12): 13
# of PSMs, H2AFV (Table 2, Avi-Ub, DMSO 14): 14
# of PSMs, CTNNA1 (Table 2, Avi-Ub, DMSO 15): 12
# of PSMs, gene symbol printed as image P00007 (Table 2, Avi-Ub, DMSO 16): 18
# of PSMs, DYNC1H1 (Table 2, Avi-Ub, DMSO 17): 13
# of PSMs, RPS3 (Table 2, Avi-Ub, DMSO 17): 21
# of PSMs, HSPA1B; HSPA1A (Table 2, Avi-Ub, DMSO 18): 18
# of PSMs, HIST2H2AC (Table 2, Avi-Ub, DMSO 19): 18
# of PSMs, UBE2K (Table 2, Avi-Ub, DMSO 19): 17
# of PSMs, CTNNB1 (Table 2, Avi-Ub, DMSO 20): 15
# of PSMs, HSPA8 (Table 2, Avi-Ub, DMSO 20): 13
# of PSMs, MCCC1 (Table 2, Avi-Ub, DMSO 20): 16
# of PSMs, PRPF8 (Table 2, Avi-Ub, DMSO 20): 19
# of PSMs, UBE2N (Table 2, Avi-Ub, DMSO 20): 14
# of PSMs, VCP (Table 2, Avi-Ub, DMSO 20): 11
# of PSMs, DSP (Table 2, Avi-Ub, DMSO 21): 14
# of PSMs, gene symbol printed as image P00006 (Table 2, Avi-Ub, DMSO 21): 13
# of PSMs, EEF2 (Table 2, Avi-Ub, DMSO 22): 13
# of PSMs, HSP90AB1 (Table 2, Avi-Ub, DMSO 22): 15
# of PSMs, gene symbol printed as image P00001 (Table 2, Avi-Ub, DMSO 22): 15
# of PSMs, gene symbol printed as image P00003 (Table 2, Avi-Ub, DMSO 22): 14
# of PSMs, AMOT (Table 2, Avi-Ub, DMSO 23): 19
# of PSMs, HSP90AA1 (Table 2, Avi-Ub, DMSO 24): 13
# of PSMs, PRKDC (Table 2, Avi-Ub, DMSO 24): 17
# of PSMs, FASN (Table 2, Avi-Ub, DMSO 28): 17
# of PSMs, USP9X (Table 2, Avi-Ub, DMSO 32): 21
# of PSMs, UBA1 (Table 2, Avi-Ub, DMSO 34): 31
# of PSMs, gene symbol printed as image P00004 (Table 2, Avi-Ub, DMSO 34): 30
# of PSMs, gene symbol printed as image P00005 (Table 2, Avi-Ub, DMSO 36): 29
# of PSMs, UBE2O (Table 2, Avi-Ub, DMSO 37): 23
# of PSMs, UBA6 (Table 2, Avi-Ub, DMSO 39): 37
# of PSMs, gene symbol printed as image P00002 (Table 2, Avi-Ub, DMSO 39): 33
# of PSMs, PCCA (Table 2, Avi-Ub, DMSO 45): 41
# of PSMs, ACACA (Table 2, Avi-Ub, DMSO 60): 52
# of PSMs, PC (Table 2, Avi-Ub, DMSO 116): 104
# of PSMs, ACACB [1]: 17
# of PSMs, GSPT1 [1]: 30
# of PSMs, GSPT2 [1]: 20
# of PSMs, HIST1H1D [1]: 5
# of PSMs, VCL [1]: 9
# of PSMs, CCDC144A [2]: 10
# of PSMs, DDX5 [2]: 5
# of PSMs, HIST2H2BF [3]: 5
# of PSMs, SPEN [3]: 9
# of PSMs, HIST2H2BE [4]: 6
# of PSMs, THAP5 [4]: 7
# of PSMs, gene symbol printed as image P00009 [4]: 6
# of PSMs, CCT8 [5]: 14
# of PSMs, EEF1A1 [5]: 6
# of PSMs, EEF2 [5]: 5
# of PSMs, ENO1 [5]: 6
# of PSMs, UBE2N [5]: 6
# of PSMs, HIST1H4A . . . [6]: 9
# of PSMs, HSP90AB1 [6]: 9
# of PSMs, gene symbol printed as image P00010 (Table 3 (head Avi-, text A3-Ub), DMSO 10): 11
# of PSMs, HSP90AA1 (Table 3 (head Avi-, text A3-Ub), DMSO 14): 12
# of PSMs, HSPA1B; HSPA1A [7]: 6
# of PSMs, HSPA8 [7]: 10
# of PSMs, gene symbol printed as image P00008 (Table 3 (head Avi-, text A3-Ub), DMSO 23): 17
# of PSMs, MCCC1 (Table 3 (head Avi-, text A3-Ub), DMSO 26): 24
# of PSMs, ACACA (Table 3 (head Avi-, text A3-Ub), DMSO 71): 75
# of PSMs, PCCA (Table 3 (head Avi-, text A3-Ub), DMSO 106): 103
# of PSMs, PC (Table 3 (head Avi-, text A3-Ub), DMSO 155): 167
